From a melting point compilation (Tetko et al.; mined from patent text by program, amines drawn as free bases though some values may be those of a salt)

Row | Compound | melting point [°C]
1 | COc1ccc(Cn2c(=O)c(C(=O)NC3CCCCC3)c(O)c3cc(F)cnc32)cc1 | 176
2 | C=CCNC(=O)C1CCc2cc(Cl)ccc2O1 (stereo not given) | 112 to 114
3 | COC(=O)c1cc(-n2cnnc2)c(C(F)(F)F)cc1N | 184 to 186
4 | CC(=O)NCCN1CCc2cc(NC(=O)c3ccccc3-c3ccc(C(F)(F)F)cc3)ccc2C1 | 163
5 | Cc1cc(C(F)(F)F)ccc1NC(=O)C(C)(C)C | 111 to 114
6 | COc1ccc(N2C(=O)[C@@H](NC(=O)Cc3ccccc3)[C@H]2C=CC(=O)[C@@H]2CCCO2)cc1 | 159 to 162
7 | CCCCCCCCCCCCCCCC(=O)Nc1ccc(C(=O)O)cc1C | 194 to 196
8 | COc1ccc2c(c1)c1c(n2C)C(=O)NCCO1 | 184 to 186
9 | CCCCC(CC)Cn1c2cc(CO)ccc2c2ccc(CO)cc21 (stereo not given) | 119 to 120
10 | CC1=C(C(=O)OC(C)(C)C)C(c2ccccc2)C(C(=O)OC(C)(C)C)=C(C)N1 | 187 to 188
11 | NC(=O)Cc1ccc(OCCN(CC(=O)c2ccc(OCc3ccccc3)c(OCc3ccccc3)c2)Cc2ccccc2)cc1 | 99 to 101
12 | COc1cccc(Oc2c(NS(=O)(=O)c3ccc(C(C)(C)C)cc3)ncnc2OCCCO)c1 | 113 to 114
13 | COC(=O)c1cc2c(cc1N)OCO2 | 107 to 108
14 | Oc1c2ncnc(S)c2nn1-c1ccccc1 | > 300
15 | Cc1cc(C(C)(C)CBr)c(C)nn1 | 45 to 46
16 | Cc1nc(C)nc(NC(=O)NS(=O)(=O)c2ccccc2C)n1 | 141 to 145
17 | CC(C)=CCOC(C)C1CC=C2C3=C(CCC21C)C1(C)CCC(O)C(C)(C)C1CC3 (stereo not given) | 117 to 120
18 | O=C(CCCCSc1ccc(O)cc1)N1CCOCC1 | 112 to 113
19 | COc1cc2c(Cl)c(C(N)=O)cnc2cc1F | 228
20 | Cc1nc(NC(=O)c2ccccc2)sc1C(=O)NNC(=O)c1ccccc1 | 258 to 260
21 | CCn1ncc(NCC(O)CO)c(Cl)c1=O (stereo not given) | 120 to 124

Row | Compound | melting point [°C]
22 | CC(CCc1ccccc1)N(C)C1CCC(c2ccc(OCc3ccccc3)cc2)CC1 (racemic) | 54.5 to 55.5
23 | COc1c(F)c(F)cc2c(=O)c(C(=O)O)cn(C3CC3)c12 | 185 to 186
24 | COC(=O)C1C(=O)Nc2cccc(C(F)(F)F)c2CC1c1ccccc1OC (stereo not given) | 214 to 216
25 | NS(=O)(=O)c1ccccc1C(=O)OCCO | 84 to 86.5
26 | O=C(CCc1ccc(OCc2ccccc2)cc1)c1ncc(-c2ccccn2)o1 | 99 to 100
27 | CN1CCN(NC(=O)Nc2cccc3c2C(=O)c2c-3n[nH]c2-c2ccc(N3CCNCC3)cc2)CC1 | 254
28 | CC(C)(C)OC(=O)N1CCN(C(=O)Cn2sc3ccccc3c2=O)CC1 | 120 to 122
29 | O=C(Nc1ccc(C=CCN2C(=O)c3ccccc3C2=O)cc1)c1ccccc1-c1ccc(C(F)(F)F)cc1 | 190
30 | CN(CC1CC=CCC1)c1ncnc2c1ncn2C1OC(CO)C(O)C1O (stereo not given) | 154 to 156
31 | CCOC(=O)/C=C/c1cc(Br)ccc1N(C)Cc1cnn(C)c1 | 67 to 68
32 | CC1Oc2cc(F)c(N)cc2NC1=O (stereo not given) | 208 to 211
33 | CCOC(=O)c1cnn2c1c(OCC)nc1c(C)nn(C)c12 | 116 to 118
34 | CS(=O)(=O)Oc1cccc2c1CCCN2 | 74 to 76
35 | O=C(NOCCO)c1cc(F)c(F)c(F)c1Nc1ccc(I)cc1Cl | 183 to 184
36 | CC(C)C[C@H](NC(=O)OCc1ccccc1)C(=O)N[C@@H](CCc1ccccc1)C(=O)CSCc1ccco1 | 73 to 77
37 | CC1(C)Oc2ccccc2-n2cnc(-c3noc(C4CC4)n3)c21 | 155 to 156
38 | CN1CCC/C1=C\c1nc(-c2ccc(F)cc2)c(-c2ccncc2)n1CCCc1ccccc1 | 171 to 172
39 | Nc1ncc(-c2noc(-c3cnn4c(C(F)(F)F)cc(-c5ccc(F)c(F)c5)nc34)n2)cn1 | 268
40 | Cc1cc(C(=NO)c2cccs2)cc(C)c1OCC(=O)O | 152
41 | N#Cc1nn(-c2c(Cl)cc(C(F)(F)F)cc2Cl)c(-n2ccnc2)c1S(=O)(=O)C(F)(F)F | 214 to 215
42 | CCOC(=O)CC[C@H](NC(=O)c1ccc2c(c1)CCN2Cc1cnc2nc(N)nc(N)c2n1)C(=O)OCC | 168 to 170

Row | Compound | melting point [°C]
43 | O=C(O)CCC(=O)c1ccc(N2CCOCC2)cc1 | 167 to 168
44 | OC(c1ccccc1)c1ccc2nc3ccc(C(O)c4ccccc4)cc3c(-c3ccccc3)c2c1 (stereo not given) | > 280
45 | COc1cc2c(Nc3ccc(Sc4nccn4C)c(Cl)c3)c(C#N)cnc2cc1/C=C/CCN(C)C | 215 to 225
46 | CCOC(=O)c1c(C)nc2c(cnn2CC)c1NCCC(C)O (stereo not given) | 94.5 to 96.5
47 | CCCCC1(CC(=O)N(CC)CC)C(=O)N(c2ccccc2)N(c2ccccc2)C1=O | 80.5 to 82
48 | Nc1noc(CN2CCC[C@@H](OCc3cc(C(F)(F)F)cc(C(F)(F)F)c3)[C@H]2c2ccccc2)n1 (relative stereo) | 138 to 139
49 | C=CCCC(F)c1cc(C2(c3ccc(OC(F)F)cc3)N=C(N)N(C)C2=O)ccc1F (stereo not given) | 50 to 55
50 | Cc1cc(-n2ccnc2)c2cccc(OCc3c(Cl)ccc(S(=O)(=O)N4CCC[C@H]4C(=O)NCC4CCN(C)CC4)c3Cl)c2n1 | 86
51 | COc1cc(C)c(S(C)(=O)=O)cc1C(=O)O | 228
52 | Cc1cccc(Nc2cc(Cl)nc(SCC(=O)NN3CCOCC3)n2)c1C | 106 to 108
53 | O=C(O)c1cc(Cl)cc2c1NCCO2 | 209 to 210
54 | CCOC(=O)c1cc(NC(C)=O)c(=O)[nH]c1C(=O)OCC | 149 to 151
55 | CC(C)OC(=O)C(=C1SCCS1)c1ccc(F)cc1 | 106 to 107
56 | OCCOCc1c(Br)c(Br)c(COCCO)c(Br)c1Br | 145 to 147
57 | COC(=O)C(=Cc1ccc(F)c(Cl)c1)N=[N+]=[N-] | 72 to 74
58 | CC12C=CC(=O)C=C1CCC1C2=CCC2(C)C(C(=O)CCl)=CCC12 (stereo not given) | 136 to 138
59 | CC(C)(C)C1CCc2nnc(Cl)cc2C1 (stereo not given) | 96 to 97
60 | O=C(NC(=O)C(c1ccccc1)c1ccccc1)OCCCCc1ccccc1 | 118
61 | CC(C)(C)OC(=O)N[C@@H]1C(=O)N(OCc2ccccc2)C1(C)C | 121 to 122
62 | CC[C@@]1(C=O)CCCN(CCc2c[nH]c3ccc(F)cc23)C1=O | 116
63 | Nc1ncnc2c1c(-c1cc(O)cc(F)c1)nn2Cc1oc2ccccc2c(=O)c1-c1ccccc1 | 260 to 262

Next, values leading:

Row | melting point [°C] | Compound
64 | 174 to 176 | NC1CCN(c2ncc3ncnc(Nc4ccc(F)c(Cl)c4)c3n2)C1 (stereo not given)
65 | 284 to 288 | NC(=O)c1c[nH]c2ccc([N+](=O)[O-])cc12
66 | 195 to 197 | Fc1ccc(Nc2ncnc3ccc(-c4ccsc4)cc23)cc1Cl
67 | 170 | Cc1cc2cc(CN3CCCCCC3)cnc2cc1NC(=O)c1ccc(-c2ccc(F)cc2)cc1F
68 | 206 | Cc1cccc(Nn2c(-c3ccccc3)c(C)[nH]c2=S)c1
69 | 120 to 122 | CCCN(CCC)C(=O)CNc1nc(-c2ccccc2)ncc1N
70 | 212 | CS(=O)(=O)c1ccc(-c2nn(Cc3ccc(Cl)cc3Cl)c(=O)cc2-c2ccc(F)cc2)cc1
71 | 89 | Cc1c(CC(=O)NCCO[N+](=O)[O-])cc(-c2ccc(S(C)(=O)=O)cc2)n1-c1ccccc1
72 | 283 | Cc1sc(Nc2cc(F)ccn2)nc1-c1cn[nH]c1
73 | 186 | O=C(NNc1nc2ccccc2n2cccc12)c1cc2ccccc2[nH]1
74 | 155 | Cn1c(=O)cc(-c2cccc(Cl)c2)c2cc(C(=O)c3ccc(Cl)cc3)ccc21
75 | 77 to 78 | Cc1ccc(-c2ccccc2)c(C)c1CO
76 | 144 | CC(C)(C)OC(=O)NC(C(=O)O)c1c[nH]c2ccccc12 (stereo not given)
77 | 110 | CCOCc1nc2c(N)nc(C)c(C)c2n1CCNC(=O)Nc1ccccc1
78 | 154 to 155 | COC(=O)C1CCCC(=C(N)c2ccc(Cl)cc2)C(=O)C1 (stereo not given)
79 | 215 to 221 | CC(Oc1ccc([N+](=O)[O-])cc1)c1nnc(N=C=O)s1 (stereo not given)
80 | 167 to 170 | CC1Nc2ccccc2N2CCc3cc(Cl)cc1c32 (stereo not given)
81 | 95.1 | CCCc1cc(O)nc(-c2cccc(Oc3ccccc3Cl)n2)n1
82 | 62 to 62.5 | Cc1ccc2c(c1)CC(=O)c1cc(C)ccc1O2

Row | melting point [°C] | Compound
83 | > 280 | O=[N+]([O-])c1ccc2[nH]c(/C=C/c3ccncc3)nc2c1
84 | > 270 | NC(=O)c1cc(-n2cnn(Cc3ccc(F)cc3)c2=O)n[nH]1
85 | 134 to 135 | O=c1c(-c2ccc[nH]2)coc2ccccc12
86 | 99 to 102 | Cc1oc(-c2ccccc2)nc1CCOc1ccc(CNO)cc1
87 | 210 | Cn1c(=O)cc(C(N)=S)c2cc(C(=O)c3ccc(Cl)cc3)ccc21
88 | 108 to 109 | COC(=O)C1CCCc2c(-c3ccc(Cl)cc3)nsc2C1 (stereo not given)
89 | 170 to 172 | Cn1cc(Cl)c(=O)c(-c2cccc(C(F)(F)F)c2)c1
90 | 80.5 to 81 | O=[N+]([O-])c1ccc2c(c1)CN(Cc1ccccc1)C2
91 | 188 | O=C(Nc1cc2ncc(CN3CCCC3)cc2cc1Cl)c1ccc(-c2ccc(F)cc2)cc1
92 | 226 to 229 | CC(C)(C)c1ccc(C(=O)Nc2cn3nc(-c4cnn(CCO)c4)ccc3n2)cc1
93 | 180 to 182 | CCCCOc1cc(C(=O)O)cc([N+](=O)[O-])c1C(=O)c1ccc(Cl)cc1
94 | 96 to 99 | CC(C1CC1)N1C(=O)c2cc([N+](=O)[O-])cnc2C1=O (stereo not given)
95 | 112 to 113 | CCCC=C(OC(C)=O)C(=Cc1ccc(Cl)cc1)n1cncn1
96 | 136 to 138 | O=[N+]([O-])c1ccc(-c2c[nH]c(Cl)n2)cc1
97 | 150 to 152 | Cc1nn(-c2cc(OS(C)(=O)=O)c(Cl)cc2F)c(C)c1[N+](=O)[O-]
98 | > 280 | Cc1c(Br)cc(-c2ccc(=O)[nH]n2)c(O)c1Br
99 | 88 to 89 | CC1(C)Cc2ccc(Cl)cc2C=[N+]1[O-]
100 | 110 to 111 | CC(=O)Nc1ccc(S(=O)(=O)C/C=C2/CN3C(=O)C[C@H]3O2)cc1
